We go through 18 compounds from patent US11390604B2 (Hoffmann-La Roche Inc., priority 2019, dated 2022).

The test relates to Acinetobacter baumannii ATCC 17961. In words: Antimicrobial susceptibility testing: 90% growth inhibitory concentration (IC90) determination. It is filed as cell-based. The conditions noted are these: read-out: ATCC 17961 IC90. The essentials: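 Broth microdilution in Iso-Sensitest medium, twofold series (e.g. 50 to 0.097 μM final), ~5×10^5 CFU/ml inoculum, 35±2 °C. OD600 read every 20 min over 16 h. IC90 derived from growth inhibition during logarithmic phase.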

The mark [1] stands for this setting: ATCC17961, Acinetobacter baumannii ATCC 17961, Iso-Sensitest broth.

Where a name gives a salt, the structure may show the parent alone. Read-outs that look alike come from different tables or passages of the source.

Regarding `CCc1cc(NC(=O)c2ncc(-c3cn(CC#N)nc3C(F)(F)F)n2C)ccc1C(=O)N1CCN(C(=O)NC2C3CNCC32)CC1` (stereo not drawn) [Example 140, N-(3-azabicyclo[3.1.0]hexan-6-yl)-4-[4-[[5-[1-(cyanomethyl)-3-(trifluoromethyl)pyrazol-4-yl]-1-methylimidazole-2-carbonyl]amino]-2-ethylbenzoyl]piperazine-1-carboxamide;formic acid], the IC90 (usually the concentration needed for an effect of 90%) under setting [1] was determined as 1050 nM. Regarding `Cn1c(-c2cn(C3CC3(F)F)nc2C(F)(F)F)cnc1C(=O)Nc1ccc(C(=O)NC2[C@H]3CN(C(=O)N4CC[C@@H](N)C4)C[C@@H]23)c(Cl)c1` (mixture of isomers) [Example 192, N-[4-[[cis-3-[(3R)-3-aminopyrrolidine-1-carbonyl]-3-azabicyclo[3.1.0]hexan-6-yl]carbamoyl]-3-chlorophenyl]-5-[1-(2,2-difluorocyclopropyl)-3-(trifluoromethyl)pyrazol-4-yl]-1-methylimidazole-2-carboxamide, formate salt], under setting [1], the 90% effect concentration (IC90) worked out at 180 nM. On to `CN(C(=O)c1ccc(NC(=O)c2ncc(-c3cn(C4CC4(F)F)nc3C(F)(F)F)n2C)cc1Cl)C1CCN(C(=O)N[C@H]2C[C@@H](N)C2)CC1` (mixture of isomers) [Example 294, rac-N-((1s,3s)-3-aminocyclobutyl)-4-(2-chloro-4-(5-(1-(2,2-difluorocyclopropyl)-3-(trifluoromethyl)-1H-pyrazol-4-yl)-1-methyl-1H-imidazole-2-carboxamido)-N-methylbenzamido)piperidine-1-carboxamide formate], for which the IC90 under setting [1] turned out to be 363 nM. Still for that read-out and setting: under `Cn1c(-c2cn(CC(F)F)nc2C(F)(F)F)cnc1C(=O)Nc1ccc(C(=O)N2CCC23CN(C(=O)C2CCNCC2)C3)c(Cl)c1` [Example 363, N-(3-chloro-4-(6-(piperidine-4-carbonyl)-1,6-diazaspiro[3.3]heptane-1-carbonyl)phenyl)-5-(1-(2,2-difluoroethyl)-3-(trifluoromethyl)-1H-pyrazol-4-yl)-1-methyl-1H-imidazole-2-carboxamide formate] stands 481 nM; under `CN(C(=O)c1ccc(NC(=O)c2ncc(-c3cn(C4CC4(F)F)nc3C(F)(F)F)n2C)cc1Cl)C1CCNCC1` (stereo not drawn) [Example 368, N-(3-chloro-4-(methyl(piperidin-4-yl)carbamoyl)phenyl)-5-(1-(2,2-difluorocyclopropyl)-3-(trifluoromethyl)-1H-pyrazol-4-yl)-1-methyl-1H-imidazole-2-carboxamide formate], 484 nM. Same read-out and setting: under `Cn1c(-c2cn(C3CC3)nc2C(F)(F)F)cnc1C(=O)Nc1ccc(C(=O)N2CC[C@H](CN)C2)c(Cl)c1` [Example 195, (R)-N-(4-(3-(aminomethyl)pyrrolidine-1-carbonyl)-3-chlorophenyl)-5-(1-cyclopropyl-3-(trifluoromethyl)-1H-pyrazol-4-yl)-1-methyl-1H-imidazole-2-carboxamide hydrochloride] stands 202 nM; under `Cn1c(-c2cn(CC#N)nc2C(F)(F)F)cnc1C(=O)Nc1ccc(C(=O)N[C@H]2C[C@@H](N)C2)c(Cl)c1` [Example 94, N-[4-[(3-aminocyclobutyl)carbamoyl]-3-chlorophenyl]-5-[1-(cyanomethyl)-3-(trifluoromethyl)pyrazol-4-yl]-1-methylimidazole-2-carboxamide;2,2,2-trifluoroacetic acid], 176 nM; under `CCc1cc(NC(=O)c2ncc(-c3cn(Cc4cccnc4)nc3C(F)(F)F)n2C)ccc1C(=O)N1CCN(C(=O)C2(O)CCNCC2)CC1` [Example 160, N-[3-ethyl-4-[4-(4-hydroxypiperidine-4-carbonyl)piperazine-1-carbonyl]phenyl]-1-methyl-5-[1-(pyridin-3-ylmethyl)-3-(trifluoromethyl)pyrazol-4-yl]imidazole-2-carboxamide;formic acid], 1500 nM.

In the case of `CCn1cc(-c2cnc(C(=O)Nc3ccc(C(=O)N4CCN(C(=O)N[C@H]5C[C@@H](N)C5)CC4)c(Br)c3)n2C)c(C(F)(F)F)n1` [Example 325, rac-N-((is,3s)-3-aminocyclobutyl)-4-(2-bromo-4-(5-(1-ethyl-3-(trifluoromethyl)-1H-pyrazol-4-yl)-1-methyl-1H-imidazole-2-carboxamido)benzoyl)piperazine-1-carboxamidee formate], the 90% effect concentration (IC90) under setting [1] was determined as 411 nM. Turning to `Cn1c(-c2cn(C3CCCC3)nc2C(F)(F)F)cnc1C(=O)Nc1ccc(C(=O)N2CCN(C(=O)C3CCNCC3)CC2)c(Cl)c1` [Example 274, N-(3-chloro-4-(4-(piperidine-4-carbonyl)piperazine-1-carbonyl)phenyl)-5-(1-cyclopentyl-3-(trifluoromethyl)-1H-pyrazol-4-yl)-1-methyl-1H-imidazole-2-carboxamide hydrochloride], under setting [1], the concentration for an effect of 90% (IC90) turned out to be 338 nM.

As for `Cn1c(-c2cn(CC3CCC3)nc2C(F)(F)F)cnc1C(=O)Nc1ccc(C(=O)N2CCN(C(=O)[C@@H]3C[C@@H](O)CN3)CC2)c(Cl)c1` [Example 335, N-(3-chloro-4-(4-((2S,4R)-4-hydroxypyrrolidine-2-carbonyl)piperazine-1-carbonyl)phenyl)-5-(1-(cyclobutylmethyl)-3-(trifluoromethyl)-1H-pyrazol-4-yl)-1-methyl-1H-imidazole-2-carboxamide bis(2,2,2-trifluoroacetate)], the IC90 under setting [1] was determined as 426 nM. On the same count and under the same terms, next, `Cn1c(-c2cn(C3CC3)nc2C(F)(F)F)cnc1C(=O)Nc1ccc(C(=O)N2CCN(C(=O)[C@@H]3C[C@@H](O)CN3)CC2)c(Cl)c1` [Example 321, N-(3-chloro-4-(4-((2S,4R)-4-hydroxypyrrolidine-2-carbonyl)piperazine-1-carbonyl)phenyl)-5-(1-cyclopropyl-3-(trifluoromethyl)-1H-pyrazol-4-yl)-1-methyl-1H-imidazole-2-carboxamide hydrochloride]: 403 nM. On the same count and under the same terms, next, `Cn1c(-c2cn(C3CC3(F)F)nc2C(F)(F)F)cnc1C(=O)Nc1ccc(C(=O)NC2CC3CN(C(=O)N[C@H]4CNC[C@@H]4O)CC32)c(Cl)c1` (mixture of isomers) [Example 347, rac-6-(2-chloro-4-(5-(1-(2,2-difluorocyclopropyl)-3-(trifluoromethyl)-1H-pyrazol-4-yl)-1-methyl-1H-imidazole-2-carboxamido)benzamido)-N-((3S,4S)-4-hydroxypyrrolidin-3-yl)-3-azabicyclo[3.2.0]heptane-3-carboxamide formate]: 446 nM; `C#CCn1cc(-c2cnc(C(=O)Nc3ccc(C(=O)N4CCN(C(=O)N5CC(C)(N)C5)CC4)c(Cl)c3)n2C)c(C(F)(F)F)n1` [Example 81, N-[4-[4-(3-amino-3-methylazetidine-1-carbonyl)piperazine-1-carbonyl]-3-chlorophenyl]-1-methyl-5-[1-prop-2-ynyl-3-(trifluoromethyl)pyrazol-4-yl]imidazole-2-carboxamide]: 227 nM.

As to `Cn1c(-c2cn(CC(F)F)nc2C(F)(F)F)cnc1C(=O)Nc1ccc(C(=O)N[C@H]2[C@@H]3CN(C(=O)N[C@H]4C[C@@H](N)C4)C[C@@H]32)c(Cl)c1` [Example 177, (1R,5S,6s)-N-(cis-3-aminocyclobutyl)-6-(2-chloro-4-(5-(1-(2,2-difluoroethyl)-3-(trifluoromethyl)-1H-pyrazol-4-yl)-1-methyl-1H-imidazole-2-carboxamido)benzamido)-3-azabicyclo[3.1.0]hexane-3-carboxamide], under setting [1], the IC90 is 229 nM. On the same count and under the same terms, next, `Cn1c(-c2cn(CC3CCCC3)nc2C(F)(F)F)cnc1C(=O)Nc1ccc(C(=O)N2CCN(C(=O)C3CCNCC3)CC2)c(Cl)c1` [Example 304, N-(3-chloro-4-(4-(piperidine-4-carbonyl)piperazine-1-carbonyl)phenyl)-5-(1-(cyclopentylmethyl)-3-(trifluoromethyl)-1H-pyrazol-4-yl)-1-methyl-1H-imidazole-2-carboxamide hydrochloride]: 371 nM.

For the compound “formic acid;rac-(1S,5R)-8-[2- chloro-4-[[5-[1-(2,2- difluorocyclopropyl)-3- (trifluoromethyl)pyrazol-4-yl]- 1-methyl-imidazole-2- carbonyl]amino]benzoyl]-N- [rac-(3S,4S)-4- hydroxypyrrolidin-3-yl]-3,8- diazabicyclo[3.2.1]octane-3- carboxamide [Example 377]”, under “Acinetobacter baumannii ATCC 17961, Iso-Sensitest broth”, the 90% effect concentration (IC90) worked out at 497 nM. In the case of `Cn1c(-c2cn(CC#N)nc2C(F)(F)F)cnc1C(=O)Nc1ccc(C(=O)N[C@H]2C[C@@H](NC(=O)N3CC[C@@H](N)C3)C2)c(Cl)c1` [Example 316, N-[4-[[3-[[(3R)-3-aminopyrrolidine-1-carbonyl]amino]cyclobutyl]car-bamoyl]-3-chloro-phenyl]-5-[1-(cyanomethyl)-3-(trifluoromethyl)pyrazol-4-yl]-1-methyl-imidazole-2-carboxamide; formic acid], the concentration for an effect of 90% (IC90) under setting [1] stood at 392 nM.
